Test results: patent US8748448B2, “Combination analgesic employing opioid agonist and neutral antagonist” (AIKO Biotechnology, priority 2007, dated 2014)

Experiments:
[1] = system: morphine-induced pupil constriction; test: Pupillometry with 10 mg morphine i.v.; type: in vivo, human; conditions: doses up to 20 mg i.v.
[2] = system: morphine-induced antinociception; conditions: cited from earlier work
[3] = Methadone maintenance subjects: serum 6β-naltrexol pharmacokinetics; type: in vivo, human; conditions: 1.0 mg dose
Procedure: Using an assay with a lower limit of quantification of 0.5 ng/mL, 6β-naltrexol was detectable in plasma for only six hours. Determination of terminal half-life of elimination was not feasible because of lack of sufficient assay sensitivity.

6β-naltrexol
effect on morphine-induced pupil constriction [1]: no detectable effect | effect on morphine-induced antinociception ([2]; administered intraperitoneally, Wang et al. 2001): reverses | potency for reversing morphine-induced antinociception, less potent than naltrexone ([2]; published observation, depending on route of administration): 5-10 fold | AUC ([3]; Subject 1): 7.8 ng·h/mL | CL ([3]; Subject 1): 128 L/h | t1/2 ([3]; Subject 1): 2.2 h | AUC ([3]; Subject 2): 7.6 ng·h/mL | CL ([3]; Subject 2): 131 L/h | t1/2 ([3]; Subject 2): 2.43 h | Cmax ([3]; Subject 2, serum): 3.2 ng/mL
